Assay results taken from patent US12679878B2, “CRF2 receptor agonists and their use in therapy” (SANOFI, priority 2020, dated 2026).
Like-named read-outs stand apart in the source and are kept apart here. Starred links: 1 amine or outer side, 2 acyl side, 3 side chain; linkers in the order of their positions; H or OH if unused. Non-standard residues stand in square brackets, D forms with d. Residues, ends and D or L forms follow the SMILES beside them. Groups on a side chain read outwards from the residue. *: point of attachment. C18 diacid = O=C(O)CCCCCCCCCCCCCCCCC(=O)*; γGlu = O=C(O)[C@H](CCC(=O)[*:2])N[*:1]; AEEA = NCCOCCOCC(=O)O; Aib = CC(C)(N)C(=O)O

Key:
[1] = molecular target: T1, human CRF2α receptor (Homo sapiens, UniProt Q13324); assay: cAMP agonism at human CRF2 α receptor in TeloHEAC cells (Example 7); assay type: cell-based; details: cAMP HTRF, TeloHEAC cells stably expressing human CRF2 α
T1 construct: expressed in transfected cells; host or cells: TeloHEAC
T1 sequence (Q13324 1-411): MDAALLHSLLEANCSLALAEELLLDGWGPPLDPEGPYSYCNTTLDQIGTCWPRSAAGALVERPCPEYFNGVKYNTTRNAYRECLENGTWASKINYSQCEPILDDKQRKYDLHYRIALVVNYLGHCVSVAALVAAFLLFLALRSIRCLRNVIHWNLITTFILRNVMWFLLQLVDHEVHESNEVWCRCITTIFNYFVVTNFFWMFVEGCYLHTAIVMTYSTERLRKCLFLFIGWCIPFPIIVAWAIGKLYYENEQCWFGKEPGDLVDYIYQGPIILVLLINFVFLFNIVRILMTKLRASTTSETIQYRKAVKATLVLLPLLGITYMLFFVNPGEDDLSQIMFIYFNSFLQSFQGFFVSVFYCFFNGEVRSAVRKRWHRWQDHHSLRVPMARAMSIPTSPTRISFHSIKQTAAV
How it was run: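 Percent activation was referenced to 1000 nM UCN2 (100%), and EC50 values taken as concentrations giving half of maximal response. The read-out was a homogeneous time-resolved fluorescence cAMP kit, fluorescence ratio 665/620 nm. Thawed cells (2000/well) saw compound for 30 min at RT in buffer with 2 mM IBMX and 0%/0.1% HSA.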

[2] = Physical stability, Thioflavin T fibrillation assay (Example 14); assay type: physicochemical; details: 3 mg/ml, 37° C. shaking
Description: The physical stability of the compounds was assessed using a Thioflavin T (ThT) assay.
The time course for fibril formation often follows the characteristic shape of a sigmoidal curve and can be separated into three regions: a lag phase, a fast growth phase, and a plateau phase. The typical fibril formation process starts with the lag phase in which the amount of partially folded peptide turned into fibrils is not significant enough to be detected. The lag-time corresponds to the time the critical mass of the nucleus is built. Afterwards, a drastic elongation phase follows and fibril concentration increases rapidly. Therefore, by measuring the increase in fluorescence intensity attributable to ThT as well as the lag time of the increase, the fibrillation tendency of a peptide can be determined, thereby providing a measure of the physical stability of the peptide.
In the present study, test compounds were diluted in buffer to a final concentration of 3 mg/ml.
The fibrillation tendencies of the peptides were determined under stress using a Fluoroskan Ascent FL or Fluoroskan Ascent fluorometer. […] Plates were sealed with Scotch Tape (Quiagen). Samples were stressed by continuous cycles of 10 s shaking at 960 rpm and 50 s rest period at 37° C. Fibril development was monitored by measuring fluorescence intensity every 20 minutes. For each sample, eight replicates were tested.

[3] = molecular target: T2, CRF1R receptor (Homo sapiens, UniProt P34998); assay: cAMP activity at anti-target CRF1R, CRF1R-overexpression CHO cell line (Example 9); assay type: cell-based; details: CRF1R-overexpression CHO cell line; for EC50: 0% HSA; for Emax: read-out: Emax (%)
T2 construct: host or cells: CHO-K1 clone 2
T2 sequence (P34998 24-415): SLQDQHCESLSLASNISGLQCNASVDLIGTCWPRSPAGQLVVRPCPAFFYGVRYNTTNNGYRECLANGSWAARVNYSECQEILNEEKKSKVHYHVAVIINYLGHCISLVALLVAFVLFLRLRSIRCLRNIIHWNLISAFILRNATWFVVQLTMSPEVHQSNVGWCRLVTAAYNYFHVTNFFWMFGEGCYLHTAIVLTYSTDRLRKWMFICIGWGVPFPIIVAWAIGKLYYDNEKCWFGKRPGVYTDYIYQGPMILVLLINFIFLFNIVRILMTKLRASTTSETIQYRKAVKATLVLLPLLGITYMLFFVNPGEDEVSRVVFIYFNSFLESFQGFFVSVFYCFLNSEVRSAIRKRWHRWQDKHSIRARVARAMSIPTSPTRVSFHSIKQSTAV
How it was run: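 cAMP accumulation was read by HTRF after 30 min at room temperature of compound treatment. Cells were cryopreserved CHO cells overexpressing CRF1R, plated at 2000/well in IBMX (2 mM)-containing HBSS/HEPES buffer with 0 or 0.1% HSA. Activity was normalized to 1000 nM UCN2 as 100%.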

[4] = test system: rat CRF2R α receptor; assay: cAMP agonism at rat CRF2R α receptor in A7R5 rat aortic smooth muscle cells (Example 8); assay type: cell-based; details: cAMP HTRF, A7R5 rat aortic smooth muscle cell line, 0% HSA
How it was run: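 Thawed cryopreserved A7R5 cells in HBSS/20 mM HEPES (0 or 0.1% HSA) with 2 mM IBMX, 2000 cells/well, were exposed to compound for 30 min at room temperature. cAMP was read by HTRF (665/620 nm ratio) after 1 h with lysis reagents. Activity was normalised to 1000 nM urocortin 2 as 100%, and EC50 was taken as the concentration giving 50% of maximal activation.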

[5] = Solubility in buffer systems by UPLC-UV (Example 13); assay type: physicochemical
How it was run: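 The supernatant was diluted 1:10 and quantified by UPLC-UV peak area against a reference standard curve, correcting for sequence-based extinction coefficients.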

[6] = 0% HSA, read-out: EC50 [nM], 0% HSA
[7] = Buffer B: 100 mM acetate buffer, pH 4.5, 2.7 mg/ml m-cresol
[8] = pH 4.5, Solubility in Buffer B [mg/ml]
[9] = Buffer A: 100 mM acetate buffer, pH 4.5
[10] = pH 7.4, Solubility in Buffer C [mg/ml]

With CC[C@H](C)[C@H](N)C(=O)N[C@H](C(=O)N[C@@H](CC(C)C)C(=O)N[C@@H](CO)C(=O)N[C@@H](CC(C)C)C(=O)N[C@@H](CC(=O)O)C(=O)N[C@H](C(=O)N1CCC[C@H]1C(=O)N[C@H](C(=O)N[C@@H](CCCCN)C(=O)N[C@@H](CC(C)C)C(=O)N[C@@H](CCCCNC(=O)COCCOCCNC(=O)COCCOCCNC(=O)CC[C@H](NC(=O)CCCCCCCCCCCCCCCCC(=O)O)C(=O)O)C(=O)N[C@@H](CCC(N)=O)C(=O)N[C@H](C(=O)N[C@@H](CC(C)C)C(=O)N[C@@H](CC(C)C)C(=O)N[C@@H](CCC(=O)O)C(=O)N[C@@H](CCC(N)=O)C(=O)N[C@@H](CCC(=O)O)C(=O)N[C@@H](CCCNC(=N)N)C(=O)N[C@@H](CCC(N)=O)C(=O)N[C@@H](CCCCN)C(=O)N[C@@H](CCCCN)C(=O)N[C@@H](CCC(N)=O)C(=O)N[C@@H](CCCNC(=N)N)C(=O)N[C@@H](CCC(N)=O)C(=O)N[C@@H](CCC(N)=O)C(=O)N[C@@H](C)C(=O)N[C@@H](CCC(=O)O)C(=O)N[C@H](C(=O)N[C@@H](CC(N)=O)C(=O)NC(C)(C)C(=O)N[C@@H](CCC(N)=O)C(=O)N[C@H](C(=O)N[C@@H](CC(C)C)C(=O)N[C@@H](C)C(=O)N[C@@H](CCC(N)=O)C(=O)N[C@H](C(N)=O)C(C)C)[C@@H](C)CC)[C@@H](C)O)[C@@H](C)CC)[C@@H](C)CC)C(C)C)C(C)C [compound 72] (H-IVLSLDVPIKLK([AEEA-AEEA-γGlu-C18 diacid])QILLEQERQKKQRQQAETN[Aib]QILAQV-NH2; N-terminus assumed) the EC50 [1, 6] was 0.65 nM, the “Increase in FI (fluorescence intensity)” value [2, 7] was “Yes” and the “Lag time” value [2, 7] was 34.7 to 41.0 h. For the same molecule, the EC50 [3] was greater than 1000 nM, the Emax [3] was 2.58% and the EC50 [4] was 4.31 nM. The solubility at 1 h [5, 8] was greater than 10700 µg/mL.

For CC[C@H](C)[C@H](N)C(=O)N[C@H](C(=O)N[C@@H](CC(C)C)C(=O)N[C@@H](CO)C(=O)N[C@@H](CC(C)C)C(=O)N[C@@H](CC(=O)O)C(=O)N[C@H](C(=O)N1CCC[C@H]1C(=O)N[C@H](C(=O)N[C@@H](CCCCN)C(=O)N[C@@H](CC(C)C)C(=O)N[C@@H](CCCCNC(=O)COCCOCCNC(=O)COCCOCCNC(=O)CC[C@H](NC(=O)CCCCCCCCCCCCCCCCC(=O)O)C(=O)O)C(=O)N[C@@H](CCC(N)=O)C(=O)N[C@H](C(=O)N[C@@H](CC(C)C)C(=O)N[C@@H](CC(C)C)C(=O)N[C@@H](CCCCN)C(=O)N[C@@H](CCC(N)=O)C(=O)N[C@@H](CCC(=O)O)C(=O)N[C@@H](CCCNC(=N)N)C(=O)N[C@@H](CCC(N)=O)C(=O)N[C@@H](CCCCN)C(=O)N[C@@H](CCCCN)C(=O)N[C@@H](CCC(N)=O)C(=O)N[C@@H](CCCNC(=N)N)C(=O)N[C@@H](CCC(N)=O)C(=O)N[C@@H](CCC(N)=O)C(=O)N[C@@H](C)C(=O)N[C@@H](CCC(=O)O)C(=O)N[C@H](C(=O)N[C@@H](CC(N)=O)C(=O)NC(C)(C)C(=O)N[C@@H](CCC(N)=O)C(=O)N[C@H](C(=O)N[C@@H](CC(C)C)C(=O)N[C@@H](C)C(=O)N[C@@H](CCC(N)=O)C(=O)N[C@H](C(N)=O)C(C)C)[C@@H](C)CC)[C@@H](C)O)[C@@H](C)CC)[C@@H](C)CC)C(C)C)C(C)C [compound 75] (H-IVLSLDVPIKLK([AEEA-AEEA-γGlu-C18 diacid])QILLKQERQKKQRQQAETN[Aib]QILAQV-NH2), the EC50 [1, 6] was 0.48 nM, the “Increase in FI (fluorescence intensity)” value [2, 9] was “No” and the “Lag time” value [2, 9] was greater than 45 h. For the same molecule, the “Increase in FI (fluorescence intensity)” value [2, 7] was “No”, the “Lag time” value [2, 7] was greater than 45 h and the EC50 [3] was greater than 1000 nM. It also gave an Emax [3] of 2.7%, an EC50 [4] of 1.71 nM and a solubility at 1 h [5, 8] greater than 9000 µg/mL. For the same molecule, the solubility at 1 h [5, 10] was greater than 7900 µg/mL.

With CC[C@H](C)[C@H](NC(=O)[C@H](CCC(N)=O)NC(=O)[C@H](CCCCNC(=O)COCCOCCNC(=O)COCCOCCNC(=O)CC[C@H](NC(=O)CCCCCCCCCCCCCCCCC(=O)O)C(=O)O)NC(=O)[C@H](CC(C)C)NC(=O)[C@H](CCCCN)NC(=O)[C@@H](NC(=O)[C@@H]1CCCN1C(=O)[C@@H](NC(=O)[C@H](CC(=O)O)NC(=O)[C@H](CC(C)C)NC(=O)[C@H](CO)NC(=O)[C@H](CC(C)C)NC(=O)[C@@H](NC(=O)[C@@H](N)Cc1ccccc1)[C@@H](C)O)C(C)C)[C@@H](C)CC)C(=O)N[C@@H](CC(C)C)C(=O)N[C@@H](CC(C)C)C(=O)N[C@@H](CCCCN)C(=O)N[C@@H](CCC(N)=O)C(=O)N[C@@H](CCC(=O)O)C(=O)N[C@@H](CCCNC(=N)N)C(=O)N[C@@H](CCC(N)=O)C(=O)N[C@@H](CCCCN)C(=O)N[C@@H](CCCCN)C(=O)N[C@@H](CCC(N)=O)C(=O)N[C@@H](CCCNC(=N)N)C(=O)N[C@@H](CCC(N)=O)C(=O)N[C@@H](CCCCN)C(=O)N[C@@H](C)C(=O)N[C@@H](CCCCN)C(=O)N[C@@H](CCCCN)C(=O)N[C@@H](CC(N)=O)C(=O)N[C@@H](CCCCN)C(=O)N[C@@H](CCC(N)=O)C(=O)N[C@H](C(=O)N[C@@H](CC(C)C)C(=O)N[C@@H](CCC(=O)O)C(=O)N[C@@H](CCCNC(=N)N)C(=O)N[C@H](C(N)=O)C(C)C)[C@@H](C)CC [compound 146] (H-FTLSLDVPIKLK([AEEA-AEEA-γGlu-C18 diacid])QILLKQERQKKQRQKAKKNKQILERV-NH2; N-terminus assumed) the EC50 [1, 6] was 0.11 nM, the EC50 ([1]; 0.1% HSA, read-out: EC50 [nM], 0.1% HSA) was 4.36 nM and the “Increase in FI (fluorescence intensity)” value [2, 9] was “No”. The “Lag time” value [2, 9] was greater than 45 h, the “Increase in FI (fluorescence intensity)” value [2, 7] was “No” and the “Lag time” value [2, 7] was greater than 45 h. For the same molecule, the EC50 [3] was greater than 1000 nM, the Emax [3] was 1.03% and the EC50 [4] was 0.22 nM. It also gave a solubility at 1 h [5, 10] greater than 8800 µg/mL.
